Experimental data published in PubChem BioAssay AID1311 (NMMLSC, 2008).
Where a SMILES comes first, the peptide text is derived from it. The star is where a group is joined. Cbz = O=C(OCc1ccccc1)*

Tested on: Yeast Sic1MUS-GFP degradation, Cln2 overexpression, flow cytometry
Assay: yeast Sic1MUS-GFP turnover with Cln2 overexpressed – flow cytometry, Cln2 overexpression, Sic1MUS mutant, mechanism study for 26S proteasome disassembly project, confirmation (AID 1311)
Settings: active compounds read high

With `CC(=O)N1C(=O)C(=C2C=C(C)OC(C)=C2)c2ccccc21` the percent GFP remaining was 2.25%.
`CC(C)C[C@@H](C=O)NC(=O)[C@H](CC(C)C)NC(=O)[C@H](CC(C)C)NC(=O)OCc1ccccc1` (Cbz-Leu-Leu-Leu-aldehyde) gave a percent GFP remaining of 4.05%.
